# Measured values published in US8741897B2, “Glucocorticoid mimetics, methods of making them, pharmaceutical compositions and uses thereof” (Boehringer Ingelheim Pharmaceuticals Inc., priority 2003, dated 2014).
# System: glucocorticoid receptor function
# Assay: one or more of the above assays (GR binding and glucocorticoid receptor cell assays: aromatase, IL-6, TAT, MMTV-Luc, IL-8, ICAM-Luc)
# Type: cell-based
# Conditions: assay not specified per compound
# Protocol: B. Glucocorticoid Receptor Cell Assays
# 1. Induction of Aromatase in Fibroblasts (Cell Assay for Transactivation)
# Dexamethasone, a synthetic ligand to the glucocorticoid receptor (GR), induces expression of aromatase in human foreskin fibroblast cells. The activity of aromatase is measured by the conversion of testosterone to estradiol in culture media.
# On the day of the experiment, the media in the wells is replaced with fresh media. Cells are treated with test compounds to final concentrations of 10^−5 M to 10^−8 M, and testosterone to a final concentration of 300 ng/mL. Each well has a total volume of 100 μL. Samples are made in duplicates. Control wells include: (a) wells that receive testosterone only, and (b) wells that receive testosterone plus 2 μM of dexamethasone to provide maximum induction of aromatase. Plates are incubated at 37° C. overnight (15 to 18 hours), and supernatants are harvested at the end of incubation. […] The amount of estradiol is inversely proportional to the ELISA signals in each well. The extent of aromatase induction by test compounds is expressed as a relative percentage to dexamethasone. EC50 values of test compounds are derived by non-linear curve fitting.
# 2. Inhibition of IL-6 Production in Fibroblasts (Cell Assay for Transrepression)
# Human foreskin fibroblast cells produce IL-6 in response to stimulation by proinflammatory cytokine IL-1.
# On the next day, media in the wells is replaced with fresh media. Cells are treated with IL-1 (rhIL-1α, R&D Systems Cat. No. 200-LA) to a final concentration of 1 ng/mL, and with test compounds to final concentrations of 10^−5 M to 10^−8 M, in a total volume of 200 μL per well. Samples are done in duplicates. […] Positive control wells receive IL-1 only and represent maximum (or 100%) amount of IL-6 production. Plates are incubated at 37° C. overnight (15 to 18 hours), and supernatants are harvested at the end of incubation. IL-6 levels in the supernatants are determined by the ELISA kits for IL-6 (MedSystems Diagnostics GmbH, Vienna, Austria, Cat. No. BMS213TEN) according to manufacture's instructions. The extent of inhibition of IL-6 by test compounds is expressed in percentage relative to positive controls. IC50 values of test compounds are derived by non-linear curve fitting.
# Evaluation of agonist or antagonist activity of compounds binding to the glucocorticoid receptor may be determined by any of the assays.
# 3. Modulation of Tyrosine Aminotransferase (TAT) Induction in Rat Hepatoma Cells
# Testing of compounds for agonist or antagonist activity in induction of tyrosine aminotransferase (TAT) in rat hepatoma cells.
# H4-II-E-C3 cells were incubated overnight in 96 well plates (20,000 cells/100 μL/well) in MEM medium containing 10% heat inactivated FBS and 1% nonessential amino acids. On the next day, cells were stimulated with the indicated concentrations of dexamethasone or test compound (dissolved in DMSO, final DMSO concentration 0.2%) for 18 hours. Control cells were treated with 0.2% DMSO. After 18 hours, the cells were lysed in a buffer containing 0.1% Triton X-100 and the TAT activity was measured in a photometric assay using tyrosine and alpha-ketoglutarate as substrates.
# For measuring antagonist activity, the hepatoma cells were pre-stimulated by addition of dexamethasone (concentration ranges from 3×10^−9 M to 3×10^−8 M) shortly before the test compound was applied to the cells.
# 4. Modulation of MMTV-Luc Induction in HeLa Cells
# Testing of compounds for agonist or antagonist activity in stimulation of MMTV-(mouse mammary tumor virus) promoter in HeLa cells.
# Cells were cultured overnight in DMEM medium without phenol red, supplemented with 3% CCS (charcoal treated calf serum) and then transferred to 96 well plates (15,000 cells/100 μL/well).
row,SMILES,activity as agonists of the glucocorticoid receptor function in one or more of the above assays
1,"CN(C)c1cc2cc(CC(O)(CC(C)(C)c3ccc(F)cc3O)C(F)(F)F)[nH]c2cn1 (stereo not drawn) [2-[3-(5-Dimethylamino-1H-pyrrolo[2,3-c]pyridin-2-ylmethyl)-4,4,4-trifluoro-3-hydroxy-1,1-dimethylbutyl]-5-fluorophenol]",potent agonists
2,"CC(C)(CC(O)(Cc1cc2ccc(C#N)cc2[nH]1)C(F)(F)F)c1cc(S(C)(=O)=O)cc2c1OCC2 (stereo not drawn) [2-[2-Hydroxy-4-(5-methanesulfonyl-2,3-dihydrobenzofuran-7-yl)-4-methyl-2-trifluoromethylpentyl]-1H-indole-6-carbonitrile]",potent agonists
3,"COc1ccc(-c2ccccc2)cc1C(C)(C)CC(O)(Cc1cc2cc(OC(C)C)ncc2[nH]1)C(F)(F)F (stereo not drawn) [1,1,1-Trifluoro-2-(5-isopropoxy-1H-pyrrolo[2,3-c]pyridin-2-ylmethyl)-4-(4-methoxybiphenyl-3-yl)-4-methylpentan-2-ol]",potent agonists
4,"Cc1ccc(F)cc1C(C)(C)CC(O)(Cc1cc2nnccc2[nH]1)C(F)(F)F (stereo not drawn) [1,1,1-Trifluoro-4-(5-fluoro-2-methylphenyl)4-methyl-2-(5H-pyrrolo[3,2-c]pyridazin-6-ylmethyl)pentan-2-ol]",potent agonists
5,"CC(C)(CC(O)(Cn1ccc2c1CCCC2=O)C(F)(F)F)c1cc(-c2cccnc2)ccc1O (stereo not drawn) [1-[2-Hydroxy-4-(2-hydroxy-5-pyridin-3-ylphenyl)-4-methyl-2-trifluoromethylpentyl]-1,5,6,7-tetrahydroindol-4-one]",agonists
6,"COc1ccc(-c2ccsc2)cc1C(C)(C)CC(O)(Cc1cc2c(C)nccc2[nH]1)C(F)(F)F (stereo not drawn) [1,1,1-Trifluoro-4-(2-methoxy-5-thiophen-3-ylphenyl)-4-methyl-2-(4-methyl-1H-pyrrolo[3,2-c]pyridin-2-ylmethyl)pentan-2-ol]",potent agonists
7,"CC(C)(CC(O)(Cc1cc2cc(N3CCOCC3)ncc2[nH]1)C(F)(F)F)c1cccc(CN2CCOCC2)c1 (stereo not drawn) [1,1,1-Trifluoro-4-methyl-4-(3-morpholin-4-ylmethylphenyl)-2-(5-morpholin-4-yl-1H-pyrrolo[2,3-c]pyridin-2-ylmethyl)pentan-2-ol]",potent agonists
8,"COc1ccc(Br)cc1C(C)(C)CC(O)(Cc1cc2cc(N3CCOCC3)ncc2[nH]1)C(F)(F)F (stereo not drawn) [4-(5-Bromo-2-methoxyphenyl)-1,1,1-trifluoro-4-methyl-2-(5-morpholin-4-yl-1H-pyrrolo[2,3-c]pyridin-2-ylmethyl)pentan-2-ol]",potent agonists
9,"Cc1ccc(F)cc1C(C)(C)CC(O)(Cc1cc2cnccc2[nH]1)C(C)C (stereo not drawn) [5-(5-Fluoro-2-methylphenyl)-2,5-dimethyl-3-(1H-pyrrolo[3,2-c]pyridin-2-ylmethyl)hexan-3-ol]",agonists
10,"CC(C)(CC(O)(Cc1cc2cnccc2[nH]1)C(F)(F)F)c1cc(-c2cccnc2)ccc1O (stereo not drawn) [4-Pyridin-3-yl-2-[4,4,4-trifluoro-3-hydroxy-1,1-dimethyl-3-(1H-pyrrolo[3,2-c]pyridin-2-ylmethyl)butyl]phenol]",potent agonists
11,"COc1ccc(-c2cccnc2)cc1C(C)(C)CC(O)(Cc1cc2cnccc2[nH]1)C(F)(F)F (stereo not drawn) [1,1,1-Trifluoro-4-(2-methoxy-5-pyridin-3-ylphenyl)-4-methyl-2-(1H-pyrrolo[3,2-c]pyridin-2-ylmethyl)pentan-2-ol]",potent agonists
12,"COc1ccc(F)cc1C(C)(C)CC(O)(Cc1cc2ccncc2[nH]1)C1(F)CC1 (stereo not drawn) [2-(1-Fluorocyclopropyl)-4-(5-fluoro-2-methoxyphenyl)-4-methyl-1-(1H-pyrrolo[2,3-c]pyridin-2-yl)pentan-2-ol]",agonists
